Legend:
K-Ras G12V = biological target: T1, K-Ras G12V (Homo sapiens, UniProt P01116, G12V); assay: HTRF resonance energy transfer assay, K-Ras G12V / SOS1 interaction; format: biochemical; conditions: HTRF assay of Example 5; read-out: IC50 against K-Ras G12V
T1 construct: made in house; host or cells: E. coli BL21 (DE3)
How it was run: (§1)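 GST-tagged K-Ras (WT or mutant) bound to anti-GST-Eu donor was mixed with His-hSOS1 bound to anti-6His-XL665 acceptor in ~5 mM HEPES pH 7.4, 150 mM NaCl, 1 mM DTT, 0.05% BSA, 0.0025% Igepal. HTRF (ex 337, em 620/665 nm) was read after ~10 min or longer. IC50 came from the 665/620 ratio over duplicates from 10 μM to 0.01 μM.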

K-Ras G12S = biological target: T2, K-Ras G12S (Homo sapiens, UniProt P01116, G12S); assay: HTRF resonance energy transfer assay, K-Ras G12S / SOS1 interaction; format: biochemical; conditions: HTRF assay of Example 5; read-out: IC50 against K-Ras G12S
T2 construct: made in house; host or cells: E. coli BL21 (DE3)
How it was run: as §1

K-Ras G12D = biological target: T3, K-Ras G12D (Homo sapiens, UniProt P01116, G12D); assay: HTRF resonance energy transfer assay, K-Ras G12D / SOS1 interaction; format: biochemical; conditions: HTRF assay of Example 5; read-out: IC50 against K-Ras G12D
T3 construct: made in house; host or cells: E. coli BL21 (DE3)
How it was run: as §1

GP2D cells = assay: Ras cellular assay, growth of cells with K-Ras G12D mutation (CellTiter-Glo); format: cell-based; conditions: cell growth, Example 9, G12D mutation, read-out: IC50 against GP2D cells
SW620 cells = assay: Ras cellular assay, growth of cells with K-Ras G12V mutation (CellTiter-Glo); format: cell-based; conditions: Homo sapiens, SW-620; cell growth, Example 9, G12V mutation; read-out: IC50 against SW620 cells
How it was run: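 SW620 (K-Ras G12V) cells, e.g. 800/well in RPMI-1640 with 10% heat-inactivated FBS on standard or ultra-low attachment plates, were dosed the day after plating with e.g. a 10-point 3-fold series. Viability by CellTiter-Glo luminescence about 6 days later; IC50 from four-parameter fit.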

A549 cells = assay: Ras cellular assay, growth of cells with K-Ras G12S mutation (CellTiter-Glo); format: cell-based; conditions: Homo sapiens, cell growth, Example 9, G12S mutation, read-out: IC50 against A549 cells
How it was run: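 A549 cells (K-Ras G12S) in RPMI-1640 with 10% heat-inactivated FBS, seeded e.g. 800 per well in standard or ultra-low-attachment 384-well plates, treated next day with a dilution series (e.g. 10-point, 3-fold). Viability by CellTiter-Glo luminescence about 6 days later; IC50 from four-parameter fit.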

K-Ras WT = biological target: T4, K-Ras WT (Homo sapiens, UniProt P01116); assay: HTRF resonance energy transfer assay, K-Ras WT / SOS1 interaction; format: biochemical; conditions: HTRF assay of Example 5; read-out: IC50 against K-Ras WT
T4 construct: made in house; host or cells: E. coli BL21 (DE3)
How it was run: as §1

T3 sequence (P01116 1-188 isoform P01116-2 G12D): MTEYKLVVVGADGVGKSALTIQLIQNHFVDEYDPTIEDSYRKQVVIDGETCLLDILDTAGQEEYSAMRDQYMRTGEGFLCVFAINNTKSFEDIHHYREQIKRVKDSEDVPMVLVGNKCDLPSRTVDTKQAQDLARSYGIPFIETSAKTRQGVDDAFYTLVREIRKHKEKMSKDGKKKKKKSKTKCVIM
T1 sequence (P01116 1-188 isoform P01116-2 G12V): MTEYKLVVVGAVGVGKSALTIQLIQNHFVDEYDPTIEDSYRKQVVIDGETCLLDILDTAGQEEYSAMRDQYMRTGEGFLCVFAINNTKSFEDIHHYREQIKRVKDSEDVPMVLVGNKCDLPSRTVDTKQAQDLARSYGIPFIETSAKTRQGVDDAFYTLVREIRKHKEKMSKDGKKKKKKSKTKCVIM
T2 sequence (P01116 1-188 isoform P01116-2 G12S): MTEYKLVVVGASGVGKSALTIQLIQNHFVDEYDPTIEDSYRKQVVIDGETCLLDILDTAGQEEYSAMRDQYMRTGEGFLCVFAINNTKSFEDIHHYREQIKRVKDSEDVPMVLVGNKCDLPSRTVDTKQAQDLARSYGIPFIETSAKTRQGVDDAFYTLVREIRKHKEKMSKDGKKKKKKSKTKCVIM
T4 sequence (P01116 1-188 isoform P01116-2): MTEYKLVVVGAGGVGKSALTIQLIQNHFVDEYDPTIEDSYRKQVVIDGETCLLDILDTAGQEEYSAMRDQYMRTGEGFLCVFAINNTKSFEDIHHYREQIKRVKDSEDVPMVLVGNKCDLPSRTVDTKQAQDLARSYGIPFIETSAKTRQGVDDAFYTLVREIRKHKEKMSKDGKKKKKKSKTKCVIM

Compound: CC(C1CC1C#N)N1CCOc2c(Cl)c(-c3ccc(F)c4sc(N)c(C#N)c34)c(F)c3nc(OC[C@@]45CCCN4C[C@H](F)C5)nc1c23 (stereo partly drawn) [Compound 923, 2-amino-4-(8-chloro-4-(1-(2-cyanocyclopropyl)ethyl)-10-fluoro-2-(((2R,7aS)-2-fluorotetrahydro-1H-pyrrolizin-7a(5H)-yl)methoxy)-5,6-dihydro-4H-[1,4]oxazepino[5,6,7-de]quinazolin-9-yl)-7-fluorobenzo[b]thiophene-3-carbonitrile]
- IC50 (K-Ras G12V): < 100 nM
- IC50 (K-Ras G12S): < 100 nM
- IC50 (K-Ras G12D): < 100 nM
- IC50 (GP2D cells): < 500 nM
- IC50 (SW620 cells): < 5 µM
- IC50 (A549 cells): < 5 µM
- IC50 (K-Ras WT): < 100 nM

Compound: N#Cc1c(N)sc2c(F)ccc(-c3c(Cl)c4c5c(nc(OC[C@@]67CCCN6C[C@H](F)C7)nc5c3F)N(CCC(F)(F)F)CCO4)c12 [Compound 932, 2-amino-4-(8-chloro-10-fluoro-2-(((2R,7aS)-2-fluorotetrahydro-1H-pyrrolizin-7a(5H)-yl)methoxy)-4-(3,3,3-trifluoropropyl)-5,6-dihydro-4H-[1,4]oxazepino[5,6,7-de]quinazolin-9-yl)-7-fluorobenzo[b]thiophene-3-carbonitrile]
- IC50 (K-Ras G12V): < 100 nM
- IC50 (K-Ras G12S): < 100 nM
- IC50 (K-Ras G12D): < 100 nM
- IC50 (GP2D cells): < 500 nM
- IC50 (SW620 cells): < 5 µM
- IC50 (A549 cells): < 5 µM
- IC50 (K-Ras WT): < 100 nM

Compound: CC(CO)N1CCOc2c(Cl)c(-c3ccc(F)c4sc(N)c(C#N)c34)c(F)c3nc(OC[C@@]45CCCN4C[C@H](F)C5)nc1c23 (stereo partly drawn) [Compound 937, 2-amino-4-(8-chloro-10-fluoro-2-(((2R,7aS)-2-fluorotetrahydro-1H-pyrrolizin-7a(5H)-yl)methoxy)-4-(1-hydroxypropan-2-yl)-5,6-dihydro-4H-[1,4]oxazepino[5,6,7-de]quinazolin-9-yl)-7-fluorobenzo[b]thiophene-3-carbonitrile]
- IC50 (K-Ras G12V): < 100 nM
- IC50 (K-Ras G12S): < 100 nM
- IC50 (K-Ras G12D): < 100 nM
- IC50 (GP2D cells): < 500 nM
- IC50 (SW620 cells): < 5 µM
- IC50 (A549 cells): < 5 µM
- IC50 (K-Ras WT): < 100 nM

Compound: N#Cc1c(N)sc2c(F)ccc(-c3c(Cl)c4c5c(nc(OC[C@@]67CCCN6C[C@H](F)C7)nc5c3F)N([C@H]3CCN(C(=O)C(F)F)C3)CCO4)c12 [Compound 940, 2-amino-4-(8-chloro-4-((S)-1-(2,2-difluoroacetyl)pyrrolidin-3-yl)-10-fluoro-2-(((2R,7aS)-2-fluorotetrahydro-1H-pyrrolizin-7a(5H)-yl)methoxy)-5,6-dihydro-4H-[1,4]oxazepino[5,6,7-de]quinazolin-9-yl)-7-fluorobenzo[b]thiophene-3-carbonitrile]
- IC50 (K-Ras G12V): < 100 nM
- IC50 (K-Ras G12S): < 100 nM
- IC50 (K-Ras G12D): < 100 nM
- IC50 (GP2D cells): < 500 nM
- IC50 (SW620 cells): < 5 µM
- IC50 (A549 cells): < 5 µM
- IC50 (K-Ras WT): < 100 nM

Compound: CC1Oc2c(Cl)c(-c3ccc(F)c4sc(N)c(C#N)c34)c(F)c3nc(OC[C@@]45CCCN4C[C@H](F)C5)nc(c23)N(CC(F)F)C1C (stereo partly drawn) [Compound 944, 2-amino-4-(8-chloro-4-(2,2-difluoroethyl)-10-fluoro-2-(((2R,7aS)-2-fluorotetrahydro-1H-pyrrolizin-7a(5H)-yl)methoxy)-5,6-dimethyl-5,6-dihydro-4H-[1,4]oxazepino[5,6,7-de]quinazolin-9-yl)-7-fluorobenzo[b]thiophene-3-carbonitrile]
- IC50 (K-Ras G12V): < 100 nM
- IC50 (K-Ras G12S): < 100 nM
- IC50 (K-Ras G12D): < 100 nM
- IC50 (GP2D cells): < 500 nM
- IC50 (SW620 cells): < 5 µM
- IC50 (A549 cells): < 5 µM
- IC50 (K-Ras WT): < 100 nM

Compound: C[C@H]1CN(CCN(C)C)c2nc(OC[C@@]34CCCN3C[C@H](F)C4)nc3c(F)c(-c4ccc(F)c5sc(N)c(C#N)c45)c(Cl)c(c23)O1 [Compound 950, 2-amino-4-((6S)-8-chloro-4-(2-(dimethylamino)ethyl)-10-fluoro-2-(((2R,7aS)-2-fluorotetrahydro-1H-pyrrolizin-7a(5H)-yl)methoxy)-6-methyl-5,6-dihydro-4H-[1,4]oxazepino[5,6,7-de]quinazolin-9-yl)-7-fluorobenzo[b]thiophene-3-carbonitrile]
- IC50 (K-Ras G12V): < 100 nM
- IC50 (K-Ras G12S): < 100 nM
- IC50 (K-Ras G12D): < 100 nM
- IC50 (GP2D cells): < 500 nM
- IC50 (SW620 cells): < 5 µM
- IC50 (A549 cells): < 5 µM
- IC50 (K-Ras WT): < 100 nM

Compound: N#Cc1c(N)sc2c(F)ccc(-c3c(Cl)c4c5c(nc(OC[C@@]67CCCN6C[C@H](F)C7)nc5c3F)N(CC3CC(F)(F)C3)CCO4)c12 [Compound 951, 2-amino-4-(8-chloro-4-((3,3-difluorocyclobutyl)methyl)-10-fluoro-2-(((2R,7aS)-2-fluorotetrahydro-1H-pyrrolizin-7a(5H)-yl)methoxy)-5,6-dihydro-4H-[1,4]oxazepino[5,6,7-de]quinazolin-9-yl)-7-fluorobenzo[b]thiophene-3-carbonitrile]
- IC50 (K-Ras G12V): < 100 nM
- IC50 (K-Ras G12S): < 100 nM
- IC50 (K-Ras G12D): < 100 nM
- IC50 (GP2D cells): < 500 nM
- IC50 (SW620 cells): < 5 µM
- IC50 (A549 cells): < 5 µM
- IC50 (K-Ras WT): < 100 nM

Compound: C[C@H](O)[C@H]1COc2c(Cl)c(-c3ccc(F)c4sc(N)c(C#N)c34)c(F)c3nc(OC[C@@]45CCCN4C[C@H](F)C5)nc(c23)N1CCC(F)F [Compound 954, 2-amino-4-((5R)-8-chloro-4-(3,3-difluoropropyl)-10-fluoro-2-(((2R,7aS)-2-fluorotetrahydro-1H-pyrrolizin-7a(5H)-yl)methoxy)-5-((S)-1-hydroxyethyl)-5,6-dihydro-4H-[1,4]oxazepino[5,6,7-de]quinazolin-9-yl)-7-fluorobenzo[b]thiophene-3-carbonitrile]
- IC50 (K-Ras G12V): < 100 nM
- IC50 (K-Ras G12S): < 100 nM
- IC50 (K-Ras G12D): < 100 nM
- IC50 (GP2D cells): < 500 nM
- IC50 (SW620 cells): < 5 µM
- IC50 (A549 cells): < 5 µM
- IC50 (K-Ras WT): < 100 nM

Compound: N#Cc1c(N)sc2c(F)ccc(-c3c(Cl)c4c5c(nc(OC[C@@]67CCCN6C[C@H](F)C7)nc5c3F)N(C3CC35CN(C=O)C5)CCO4)c12 (stereo partly drawn) [Compound 957, 2-amino-4-(8-chloro-10-fluoro-2-(((2R,7aS)-2-fluorotetrahydro-1H-pyrrolizin-7a(5H)-yl)methoxy)-4-(5-formyl-5-azaspiro[2.3]hexan-1-yl)-5,6-dihydro-4H-[1,4]oxazepino[5,6,7-de]quinazolin-9-yl)-7-fluorobenzo[b]thiophene-3-carbonitrile]
- IC50 (K-Ras G12V): < 100 nM
- IC50 (K-Ras G12S): < 100 nM
- IC50 (K-Ras G12D): < 100 nM
- IC50 (GP2D cells): < 500 nM
- IC50 (SW620 cells): < 5 µM
- IC50 (A549 cells): < 5 µM
- IC50 (K-Ras WT): < 100 nM

Compound: N#Cc1c(N)sc2c(F)ccc(-c3c(Cl)c4c5c(nc(OC[C@@]67CCCN6C[C@H](F)C7)nc5c3F)N(C3CCN(C(=O)[C@@H]5CCOC5)C3)CCO4)c12 (stereo partly drawn) [Compound 960, 2-amino-4-(8-chloro-10-fluoro-2-(((2R,7aS)-2-fluorotetrahydro-1H-pyrrolizin-7a(5H)-yl)methoxy)-4-(1-((R)-tetrahydrofuran-3-carbonyl)pyrrolidin-3-yl)-5,6-dihydro-4H-[1,4]oxazepino[5,6,7-de]quinazolin-9-yl)-7-fluorobenzo[b]thiophene-3-carbonitrile]
- IC50 (K-Ras G12V): < 100 nM
- IC50 (K-Ras G12S): < 100 nM
- IC50 (K-Ras G12D): < 100 nM
- IC50 (GP2D cells): < 500 nM
- IC50 (SW620 cells): < 5 µM
- IC50 (A549 cells): < 5 µM
- IC50 (K-Ras WT): < 100 nM

Compound: CS(=O)(=O)N1CCC(N2CCOc3c(Cl)c(-c4ccc(F)c5sc(N)c(C#N)c45)c(F)c4nc(OC[C@@]56CCCN5C[C@H](F)C6)nc2c34)C1 (stereo partly drawn) [Compound 966, 2-amino-4-(8-chloro-10-fluoro-2-(((2R,7aS)-2-fluorotetrahydro-1H-pyrrolizin-7a(5H)-yl)methoxy)-4-(1-(methylsulfonyl)pyrrolidin-3-yl)-5,6-dihydro-4H-[1,4]oxazepino[5,6,7-de]quinazolin-9-yl)-7-fluorobenzo[b]thiophene-3-carbonitrile]
- IC50 (K-Ras G12V): < 100 nM
- IC50 (K-Ras G12S): < 100 nM
- IC50 (K-Ras G12D): < 100 nM
- IC50 (GP2D cells): < 500 nM
- IC50 (SW620 cells): < 5 µM
- IC50 (A549 cells): < 5 µM
- IC50 (K-Ras WT): < 100 nM

Compound: N#Cc1c(N)sc2c(F)ccc(-c3c(Cl)c4c5c(nc(OC[C@@]67CCCN6C[C@H](F)C7)nc5c3F)N(C3CCNC3)CCO4)c12 (stereo partly drawn) [Compound 969, 2-amino-4-(8-chloro-10-fluoro-2-(((2R,7aS)-2-fluorotetrahydro-1H-pyrrolizin-7a(5H)-yl)methoxy)-4-(pyrrolidin-3-yl)-5,6-dihydro-4H-[1,4]oxazepino[5,6,7-de]quinazolin-9-yl)-7-fluorobenzo[b]thiophene-3-carbonitrile]
- IC50 (K-Ras G12V): < 100 nM
- IC50 (K-Ras G12S): < 100 nM
- IC50 (K-Ras G12D): < 100 nM
- IC50 (GP2D cells): < 500 nM
- IC50 (SW620 cells): < 5 µM
- IC50 (A549 cells): < 5 µM
- IC50 (K-Ras WT): < 100 nM

Reference: patent publication US12209102B2, “Heterocyclic compounds and uses thereof” (Kumquat Biosciences Inc., priority 2022, dated 2025)
